{"source": "patent US20160317531A1", "about": "“RIBONUCLEOTIDE REDUCTASE INHIBITORS SENSITIZE TUMOR CELLS TO DNA DAMAGING AGENTS” (THE GENERAL HOSPITAL CORPORATION, priority 2013, published 2016)", "key": {"Notch signalling": {"test_system": "Notch signalling", "assay": "RBP-Jk-Fluc reporter assay in 293T cells", "format": "cell-based", "method": "293T cells were infected with lenti-RBP-Jk-Fluc vector and treated with 50 μM HU or γ-secretase inhibitor DAPT for […]. Cell lysates was imaged and analyzed for Fluc activity with the Xenogen IVIS 200 Imaging System. **p<0.01 vs. DMSO (n=8 for DMSO, n=5 for HU or DAPT treatment).\n(§1) Since HU is known to target ribonucleotide reductase subunit 2 (RNR), knockdown experiment was first performed in different cell lines using shRNA against RNR (shRNR) or scrambled control (ShScram) and different concentrations of TMZ. […] Other ribonucleotide reductase (RNR) inhibitors were further evaluated to determine if a similar effect as HU is obtained on GBM. GBM cells from recurrent tumors expressing Gluc were treated in a 96-well plate with either fludarabine or gemcitabine—classical RNR inhibitors—and cell viability was assessed by the Gluc assay. […] The RBP-Jk-Fluc reporter plasmid which carries RBP-Jk transcriptional response element driving the expression of Fluc34 was used. RBP-Jk is a DNA binding transcription factor and a direct downstream modulator of Notch signalling. Thus, this reporter can indirectly monitor Notch activity (Minoguchi, S., et al., Mol Cell Biol 1997, 17, 2679-2687). 293T cells were transfected with this plasmid, treated with 30 μM HU, and monitored Fluc activity 3 days later."}, "[1]": {"test_system": "U87R1, U87R2, SNZ308R1, SNZ308R2, HS683R1 and HS683R2 TMZ-resistant cells", "assay": "Gluc cell viability assay, TMZ-resistant glioma subclones", "format": "cell-based", "method": "(§2) FIG. 1A is a set of graphs showing the effects of TMZ on tumor cells. U87, SNZ308, HS683 parental cells (P) and resistant clones (Res) were treated with different amounts of TMZ. After four days aliquots of conditioned medium were assayed for Gluc activity using 50 μl 2 μg/ml coelenterazine.\nFIG. 1B is a set of graphs showing the effects of TMZ+HU on tumor cells. U87 and resistant clones R1/R2 were treated with TMZ and/or 100 μM HU. Cell viability was assessed by the Gluc assay.\nThe inventors previously generated two independent TMZ-resistant subclones from three different glioma cell lines (U87, SNZ308 and HS683) by long-term exposure (two times per week over seven weeks) to 100 μM TMZ, generating U87R1, U87R2, SNZ308R1, SNZ308R2, HS683R1 and HS683R2. These cells together with their parental counterparts were first engineered by lentivirus vector transduction to stably express the naturally secreted Gaussia luciferase (Gluc) as a reporter for cell viability. […] In this case, cell viability can be monitored over time by assaying aliquots of conditioned medium from these cells for Gluc activity. […] Using the U87R1 and U87R2 TMZ-resistant cells and the Gluc high-throughput screening assay (Badr, C. E., et al., Assay Drug Dev Technol, 2011 9, 281-289), a small library of 100 known anti-cancer agents was screened in the presence and absence of 100 μM TMZ. […]"}, "[2]": {"format": "in vivo", "settings": "mice treated four consecutive days; HU 30 mg/kg, TMZ 30 mg/kg", "method": "Primary GBM8 cells24 (from newly diagnosed tumor with methylated MGMT (Wakimoto, H., et al., Neuro Oncol 2012, 14, 132-144)) were grown in stem cell media as neural spheres. […] Upon intracranial injection, these cells formed tumors and infiltrated the brain of nude mice similar to human tumors (FIGS. 4A-4C). This model was used to test the efficacy of HU in combination with TMZ. Four weeks after implantation of 100,000 GBM8 cells, when tumors started to rapidly grow (as observed by Fluc imaging), mice were divided into two groups (n=20/group) which received DMSO vehicle or i.p. injection of 30 mg/kg TMZ four days/week over two weeks. […] Mice were then left off TMZ to allow for GBM tumors to recur potentially becoming resistant to TMZ, recapitulating the patient scenario. […] Next, the toxicity of this combined therapy was assessed by treating mice with either DMSO, TMZ, HU, or HU+TMZ for four consecutive days and analyzing the blood for white blood cells (WBC), hematocrit (HCT), mean corpuscular volume (MCV), red cell distribution width (RDW), hemoglobin (HGB), mean corpuscular hemoglobin (MCH), red blood cells (RBC), platelets (PLT), and mean platelet volume (MPV). […] Hematotoxicity on bone marrow was also evaluated by preparing bone marrow smears and counting viable cells from untreated and TMZ/HU-treated naïve mice as above."}, "melanoma cells": {"test_system": "melanoma cells", "assay": "Sensitization of melanoma cells to TMZ", "format": "cell-based", "settings": "FIG. 7"}, "[3]": {"settings": "for certain chemotherapeutics; cited from earlier work"}, "malignant gliomas": {"test_system": "malignant gliomas", "settings": "in combination with radiation or cytotoxic chemotherapy, not TMZ; cited from earlier work"}, "U87 tumors": {"test_system": "U87 tumors", "assay": "Intracranial U87-Fluc tumor model, Fluc imaging and survival", "settings": "5 mg/kg TMZ i.p., 50 mg/kg HU i.p., start one week post-implantation", "protocol": "U87 cells (20,000 cells/mouse) expressing Fluc were implanted in the brain of nude mice. One week later, mice were divided in four groups (n=10-20/group) and treated with 1). DMSO vehicle as control, 2). 50 mg/kg HU, 3). 1 mg/kg TMZ or 4). 1 mg/kg TMZ+50 mg/kg HU. In FIG. 2A, tumor growth was monitored over time by Fluc imaging. X-axis, days after treatment starts. In FIG. 2B, survival was recorded to generate the Kaplan-Meier plot. X-axis, days after treatment starts.\nU87 cells (20,000 cells/mouse) expressing Fluc were implanted in the brain of nude mice. One week later, mice were divided in four groups (n=10-20/group) and treated with 1). DMSO vehicle as control, 2). 50 mg/kg HU, 3). 5 mg/kg TMZ or 4). 5 mg/kg TMZ+50 mg/kg HU. In FIG. 2C, tumor growth was monitored over time by Fluc imaging. X-axis, days after treatment starts. In FIG. 2D, survival was recorded to generate the Kaplan-Meier plot. X-axis, days after treatment starts.\nU87 or U87R1 cells were first transduced with a lentivirus vector to stably express firefly luciferase (Fluc), a reporter which can be used to track tumor growth in vivo (Wurdinger, T., et al., Nat Methods 2008, 5, 171-173). Fifty thousands of these cells were intracranially injected in the brain of nude mice as previously described. One week post-tumor implantation, mice were randomized into four different groups receiving: (1) DMSO vehicle control; (2) intraperitoneal (i.p) injection of 5 mg/kg TMZ; (3) 50 mg/kg HU i.p.; (4) combination of TMZ+HU. Tumor growth was monitored over time by in vivo Fluc bioluminescence imaging using a cooled CCD camera (Wurdinger, T., et al., Nat Methods 2008, 5, 171-173).\nGBM cells were first transduced with a lentivirus vector to stably express Fluc. Fifty thousands of these cells were intracranially injected in the brain of nude mice using the following coordinates from the bregma in mm: anterior-posterior +0.5 mm, medio-lateral +2.0 mm, dorso-ventral −2.5 mm. One week after implantation of 50,000 (low amount) or 200,000 (high amount) GBM cells, or 100 GBM spheres, mice were randomized into different treatment groups. Tumor growth was monitored over time by in vivo Fluc bioluminescence imaging after i.p. injection of 200 mg/kg D-luciferin substrate and acquiring signal using a cooled CCD camera (Wurdinger, T., et al., Nat Methods 2008, 5, 171-173)."}, "U87R1 tumors": {"test_system": "U87R1 tumors", "assay": "Intracranial U87R1-Fluc (TMZ-resistant) tumor model, Fluc imaging and survival", "settings": "5 mg/kg TMZ i.p., 50 mg/kg HU i.p., start one week post-implantation", "protocol": "U87R1 cells (20,000 cells/mouse) expressing Fluc were implanted in the brain of nude mice. One week later, mice were divided in four groups (n=10-20/group) and treated with 1). DMSO vehicle as control, 2). 50 mg/kg HU, 3). 5 mg/kg TMZ or 4). 5 mg/kg TMZ+50 mg/kg HU. In FIG. 2E, tumor growth was monitored over time by Fluc imaging. […] In FIG. 2F, survival was recorded to generate the Kaplan-Meier plot.\n200,000 U87R1 cells expressing Fluc were implanted in the brain of nude mice. Two weeks later, mice were divided in two groups (n=10/group) and treated with either TMZ or TMZ+HU. Survival was recorded.\nU87R1 cells expressing Fluc were implanted in the brain of nude mice. One week later, mice were divided in four groups (n=10-20/group) and treated with either DMSO vehicle, radiation (R; 3 Gy), HU, TMZ or R+TMZ+HU. Tumor growth was monitored over time by Fluc imaging and survival was recorded to generate the Kaplan-Meier plot.\nU87 or U87R1 cells were first transduced with a lentivirus vector to stably express firefly luciferase (Fluc), a reporter which can be used to track tumor growth in vivo (Wurdinger, T., et al., Nat Methods 2008, 5, 171-173). Fifty thousands of these cells were intracranially injected in the brain of nude mice as previously described. One week post-tumor implantation, mice were randomized into four different groups receiving: (1) DMSO vehicle control; (2) intraperitoneal (i.p) injection of 5 mg/kg TMZ; (3) 50 mg/kg HU i.p.; (4) combination of TMZ+HU. Tumor growth was monitored over time by in vivo Fluc bioluminescence imaging using a cooled CCD camera (Wurdinger, T., et al., Nat Methods 2008, 5, 171-173). […]\nGBM cells were first transduced with a lentivirus vector to stably express Fluc. […] Tumor growth was monitored over time by in vivo Fluc bioluminescence imaging after i.p. injection of 200 mg/kg D-luciferin substrate and acquiring signal using a cooled CCD camera (Wurdinger, T., et al., Nat Methods 2008, 5, 171-173)."}, "[4]": {"test_system": "U87, SNZ308, HS683 parental cells", "assay": "Gluc cell viability assay, parental glioma cell lines", "format": "cell-based", "settings": "different amounts of TMZ, four days", "method": "as §2\nThe inventors previously generated two independent TMZ-resistant subclones from three different glioma cell lines (U87, SNZ308 and HS683) by long-term exposure (two times per week over seven weeks) to 100 μM TMZ, generating U87R1, U87R2, SNZ308R1, SNZ308R2, HS683R1 and HS683R2. These cells together with their parental counterparts were first engineered by lentivirus vector transduction to stably express the naturally secreted Gaussia luciferase (Gluc) as a reporter for cell viability. […] In this case, cell viability can be monitored over time by assaying aliquots of conditioned medium from these cells for Gluc activity. […] Using the U87R1 and U87R2 TMZ-resistant cells and the Gluc high-throughput screening assay (Badr, C. E., et al., Assay Drug Dev Technol, 2011 9, 281-289), a small library of 100 known anti-cancer agents was screened in the presence and absence of 100 μM TMZ. […] The same results were obtained when HU was used in combination with TMZ on SNZ308 and HS683 resistant lines (data not shown)."}, "[5]": {"test_system": "GBM8 tumors carrying methylated MGMT promoter", "assay": "Intracranial primary GBM8-Fluc-mCherry tumor model", "format": "in vivo, nude mice", "method": "FIG. 4A is an image showing that 10^5 GBM8 cells expressing Fluc and mCherry were stereotactically injected into the left midstriatum of nude mice brain.\nFIG. 4D is a set of images showing the in vivo effects of TMZ+HU treatments on mice. Mice-bearing GBM8-Fluc-mCherry tumors were treated with TMZ or vehicle for two weeks, then left off TMZ for three weeks. TMZ-treated group was then divided into four subgroups which received vehicle, HU, TMZ, or HU+TMZ.\nPrimary GBM8 cells24 (from newly diagnosed tumor with methylated MGMT (Wakimoto, H., et al., Neuro Oncol 2012, 14, 132-144)) were grown in stem cell media as neural spheres. […] Upon intracranial injection, these cells formed tumors and infiltrated the brain of nude mice similar to human tumors (FIGS. 4A-4C). This model was used to test the efficacy of HU in combination with TMZ. Four weeks after implantation of 100,000 GBM8 cells, when tumors started to rapidly grow (as observed by Fluc imaging), mice were divided into two groups (n=20/group) which received DMSO vehicle or i.p. injection of 30 mg/kg TMZ four days/week over two weeks. […] Mice were then left off TMZ to allow for GBM tumors to recur potentially becoming resistant to TMZ, recapitulating the patient scenario. At this point, the TMZ group was divided into four subgroups (n=10/group) which received either DMSO, HU (50 mg/kg), TMZ (30 mg/kg) or HU+TMZ four days/week over three weeks. […] Next, the toxicity of this combined therapy was assessed by treating mice with either DMSO, TMZ, HU, or HU+TMZ for four consecutive days and analyzing the blood for white blood cells (WBC), hematocrit (HCT), mean corpuscular volume (MCV), red cell distribution width (RDW), hemoglobin (HGB), mean corpuscular hemoglobin (MCH), red blood cells (RBC), platelets (PLT), and mean platelet volume (MPV). No significant difference between different treated groups in comparison to DMSO control was found (Table 1). Hematotoxicity on bone marrow was also evaluated by preparing bone marrow smears and counting viable cells from untreated and TMZ/HU-treated naïve mice as above."}, "[6]": {"test_system": "TMZ-resistant primary glioma rpGBMa cells", "assay": "Gluc cell viability assay, recurrent GBM cells with RNR inhibitors and TMZ", "format": "cell-based", "settings": "GBM cells from recurrent tumors, four days", "method": "FIG. 5A is a plot showing that glioma cells are sensitized to TMZ by ribonucleotide reductase inhibition. 3×10^3 TMZ-resistant primary glioma rpGBMa cells expressing Gluc were treated with […] of ribonucleotide reductase (RNR) inhibitor Fludarabine or Gemcitabine, in the presence or absence of 100 μM TMZ. After four days aliquots of conditioned medium were assayed for Gluc activity using 50 μl 2 μg/ml coelenterazine. Data presented as the mean Gluc RLU/mL +/−SD (n=8; **p<0.01 vs. no TMZ treatment by two-way ANOVA).\nas §1, with “RBP-Jk is a DNA binding transcription factor and a direct downstream modulator of Notch signalling. Thus, this reporter can indirectly monitor Notch activity (Minoguchi, S., et al., Mol Cell Biol 1997, 17, 2679-2687).” left out"}, "GBM": {"test_system": "GBM", "settings": "cited from earlier work"}, "[7]": {"settings": "second round, HU 50 mg/kg, TMZ 30 mg/kg, four days/week over three weeks"}}, "data": [{"smiles": "C[C@H](NC(=O)Cc1cc(F)cc(F)c1)C(=O)N[C@H](C(=O)OC(C)(C)C)c1ccccc1", "note": "[DAPT]", "values": [{"measurement": "change of Fluc activity", "setting": "Notch signalling; γ-secretase inhibition", "result": "decrease of Fluc activity similar to HU"}]}, {"smiles": "NC(=O)NO", "note": "[HU, hydroxyurea]", "values": [{"measurement": "sensitization of resistant cells to TMZ", "setting": "[1]; U87R1 and U87R2, 100 μM HU, TMZ", "result": "sensitize both resistance cell lines to TMZ"}, {"measurement": "MPV", "setting": "[2]", "result": "6.3 ± 0.4"}, {"measurement": "decrease in Fluc activity", "setting": "Notch signalling; 30 μM HU, 3 days", "result": 50, "unit": "%"}, {"measurement": "sensitization of melanoma cells to TMZ", "setting": "melanoma cells", "result": "sensitizes melanoma cells to TMZ"}, {"measurement": "effect on blood brain tumor permeability", "setting": "[3]", "result": "increases the blood brain tumor permeability of certain chemotherapeutics"}, {"measurement": "efficacy in malignant gliomas", "setting": "malignant gliomas", "result": "limited efficacy"}, {"measurement": "mice survival", "setting": "U87 tumors", "result": "no significant effect"}, {"measurement": "tumor growth (Fluc bioluminescence imaging)", "setting": "U87 tumors", "result": "no significant effect"}, {"measurement": "mice survival", "setting": "U87R1 tumors", "result": "no significant effect"}, {"measurement": "tumor growth (Fluc bioluminescence imaging)", "setting": "U87R1 tumors", "result": "no significant effect"}]}, {"smiles": "Cn1nnc2c(C(N)=O)ncn2c1=O", "note": "[TMZ, 4-methyl-5-oxo-2,3,4,6,8-pentazabicyclo[4.3.0]nona-2,7,9-triene-9-carboxamide]", "values": [{"measurement": "cell viability (Gluc activity) on exposure to TMZ", "setting": "[4]", "result": "sensitive to TMZ in a dose-dependent fashion"}, {"measurement": "cell viability (Gluc activity) on exposure to TMZ", "setting": "[1]; resistant cell lines, up to 100 μM TMZ", "result": "no significant effect"}, {"measurement": "tumor response, first round of treatment", "setting": "[5]; 30 mg/kg TMZ i.p. four days/week over two weeks, start four weeks after implantation", "result": "responded very well"}, {"measurement": "survival rate, recurred tumors after TMZ break", "setting": "[5]; [7]", "result": "not a significant increase"}, {"measurement": "tumor volume / tumor growth, recurred tumors after TMZ break", "setting": "[5]; [7]", "result": "moderate effect"}, {"measurement": "MPV", "setting": "[2]", "result": "6.5 ± 0.4"}, {"measurement": "cell viability (Gluc assay), TMZ alone", "setting": "[6]; 100 μM TMZ", "result": "moderate-to-no effect"}, {"measurement": "median survival", "setting": "GBM; TMZ added to standard of care including surgery and radiation, 12.1 months without", "result": 14.6, "unit": "months"}, {"measurement": "patients who die after 5 years", "setting": "GBM; patients receiving both TMZ and radiation", "result": 90, "unit": "%"}, {"measurement": "overall 2 years survival", "setting": "GBM; randomized phase III, combined therapy, 10.9% without", "result": 27.2, "unit": "%"}, {"measurement": "mice survival", "setting": "U87 tumors", "result": "moderate effect"}, {"measurement": "tumor growth (Fluc bioluminescence imaging)", "setting": "U87 tumors", "result": "moderate effect"}, {"measurement": "tumor growth (Fluc bioluminescence imaging)", "setting": "U87R1 tumors", "result": "not on U87R1 tumors"}]}, {"smiles": "Nc1ccn([C@@H]2O[C@H](CO)[C@@H](O)C2(F)F)c(=O)n1", "note": "[gemcitabine, 4-amino-1-(2-deoxy-2,2-difluoro-β-D-erythro-pentofuranosyl)pyrimidin-2(1H)-on]", "values": [{"measurement": "sensitization of GBM cells to TMZ", "setting": "[6]; RNR inhibitor in presence or absence of 100 μM TMZ", "result": "sensitized GBM cells to TMZ"}]}]}
